For one assay, the system named is Rhopr-CRZR-β. As to the kind of experiment: bioluminescence (calcium mobilizing) functional receptor assay, Rhopr-CRZR-β in CHOK1-aeq cells. It is filed as cell-based, Rhodnius prolixus. Particulars: for bioluminescence response (receptor activation): every 5 s over 15 s. On the procedure:
(§1) The ORF of the two Rhopr-CRZR variants were amplified and a Kozak translation initiation sequence was introduced at the 5′ end using primers listed in Supplementary Table 2. The resulting product was cloned into pGEM-T Easy vector and subcloned into pIRES2-ZsGreen1 (Clontech, Mountain View, CA, USA).
(§2) Chinese hamster ovary (CHO) cells stably expressing aequorin (CHOK1-aeq) (Paluzzi et al., [2010]) were cultured in complete media (94% Dulbecco's Modified Eagle Medium Nutrient Mixture F12-Ham (DMEM/F12) (Life Technologies Corporation, Carlsbad, CA, USA), 5% heat-inactivated fetal bovine serum (FBS), and 1% penicillin/streptomycin) containing 200 μg/mL Geneticin. The cells were incubated at 37°C in 5% CO2, and then transiently transfected with the expression vector for the receptor transcript variants using X-tremeGENE 9 DNA transfection reagent (Roche Applied Science, Indianapolis, IN, USA) at a ratio of 2:1 (transfection reagent to expression vector) using the manufacturer recommended protocol. Cells were also transiently transfected with an empty expression vector as a negative control.
(§3) The bioluminescence assay was performed 72 h post-transfection. The cells were first harvested with PBS/EDTA solution and suspended in bovine serum albumin BSA media (DMEM/F12 containing 1% BSA and 1% penicillin/streptomycin). The cells were incubated in the dark for 4–5 h at room temperature with 5 μM (final concentration) coelenterazine h (Promega, Madison, WI, USA) and then diluted 10-fold using BSA media. Various peptide concentrations were prepared with BSA media and loaded in triplicates on an opaque 96-well microplate. Cells were loaded into each well using an automated injector unit and luminescence was recorded over 15 s using a Wallac Victor2 plate reader (Perkin Elmer, San Diego, CA, USA). The peptides used were Rhopr-CRZ (pQTFQYSRGWTNamide), Rhopr-AKH (pQLTFSTDWamide), and Rhopr-ACP (pQVTFSRDWNAamide). Wells containing only the BSA media served as a blank control while wells containing 25, 50, and 100 μM ATP served as positive controls. Dose-response curves were obtained by averaging three replica plates and the EC50 values were determined using Prism5 software.

Another assay deals with Rhopr-CRZR-α. As to the kind of experiment: bioluminescence (calcium mobilizing) functional receptor assay, Rhopr-CRZR-α in CHOK1-aeq cells. The assay is classed as cell-based, Rhodnius prolixus. Particulars: for bioluminescence response (receptor activation): every 5 s over 15 s. As to the method: as §1, §2, §3
The next assay relates to 5th instar R. prolixus. Particulars: in vitro in 5th instar R. prolixus; ref Patel et al., [2014]; cited from earlier work. The source says: The percent knockdown of Rhopr-CRZR transcript after injection of dsCRZR into adult R. prolixus was quantified by qPCR in the dorsal vessel. […] The physiological effects of this decrease in Rhopr-CRZR on heartbeat frequency was studied in vivo and in vitro in adult R. prolixus.

The test system of a further assay is Galleria mellonella. Also noted: method as in Hua et al., [2000]; Hansen et al., [2010]. Particulars: ref Hua et al., [2000], Hansen et al., [2010]; cited from earlier work.
The next assay deals with Periplaneta americana. Details: method as in Veenstra, [1989]. Particulars: cockroach Periplaneta americana; ref Veenstra, [1989]; cited from earlier work.
For a further assay, the system named is Bombyx. mori. Also noted: method as in Hua et al., [2000]; Hansen et al., [2010]. Particulars: ref Hua et al., [2000], Hansen et al., [2010]; cited from earlier work.
Assay [1] has as its system dorsal vessel of adult R. prolixus. In words: heartbeat assay in vitro. Also noted: species or system Rhodnius prolixus. Particulars: 10^−8 M Rhopr-CRZ; for increase in heartbeat frequency in vitro: compared to saline, n = 5. As to the method: Adult R. prolixus were anesthetized briefly with CO2 and injected with 2 μL of 2 μg/μL of dsCRZR or dsARG into the thorax using a 5 μL Hamilton syringe. Insects were left for 30 min at room temperature to recover and then kept in an incubator at 28°C on a 16 h: 8 h light/dark cycle. To determine knockdown efficiency, qPCR was performed 3 days post-injection.
Adult R. prolixus injected 3 days earlier with either dsCRZR or dsARG were dissected from the ventral surface under physiological saline (150 mM NaCl, 8.6 mM KCl, 2 mM CaCl2, 4 mM NaHCO3, and 8.5 mM MgCl2, 5 mM HEPES, pH 7.0). The digestive and reproductive systems were removed to expose the dorsal vessel. Electrodes attached to an impedance converter (UFI model 2991, Morro Bay, CA, USA) were positioned on either side of the dorsal vessel between the sixth and fifth abdominal segments. The heartbeat frequency was left to stabilize in 50 μL saline and the frequency of heartbeat measured from the traces recorded on a linear Flat-bed single channel chart recorder. The saline was then exchanged for 50 μL of 10^−8 M CRZ and the heartbeat frequency was again measured. The response to 10^−8 M CRZ was quantified by measuring the increase in heartbeat frequency compared to saline control.

For the next assay, the system named is Manduca sexta. Also noted: method as in Kim et al., [2004]. Particulars: ref Kim et al., [2004]; cited from earlier work.
For a further assay, the system named is Gryllus bimaculatus. Also noted: method as in Hua et al., [2000]; Hansen et al., [2010]. Particulars: ref Hua et al., [2000], Hansen et al., [2010]; cited from earlier work.

Usually EC50 stands for the concentration giving half of the maximal effect. On to “pQTFQYSRGWTNamide [Rhopr-CRZ, Rhodnius prolixus corazonin neuropeptide, p…amide]”, for which the EC50 in the assay with Rhopr-CRZR-β (Rhopr-CRZR-β transiently expressed in CHOK1-aeq cells, coelenterazine h luminescence over 15 s, 72 h post-transfection, triplicates, three replica plates averaged) came to 1 nM; with Rhopr-CRZR-α (Rhopr-CRZR-α transiently expressed in CHOK1-aeq cells, coelenterazine h luminescence over 15 s, 72 h post-transfection, triplicates, three replica plates averaged) it was 2.7 nM. For the same substance, the “time of maximum luminescence” value is at most 5 s with Rhopr-CRZR-β (Rhopr-CRZR-β, during the first 5 s following activation, 10^−6 M, n = 3) and at most 5 s in the assay with Rhopr-CRZR-α (Rhopr-CRZR-α, during the first 5 s following activation, 10^−6 M, n = 3). In addition, in the assay on 5th instar R. prolixus, the heartbeat frequency entry was “increase heartbeat frequency in a dose-dependent manner”. The dark body coloration entry in the assay with Galleria mellonella, in the assay on Bombyx. mori and with Gryllus bimaculatus was “did not have such an effect” each time. In the assay on Periplaneta americana, the heartbeat rate entry is on record as “increases the heartbeat rate”. Also, the “increase in heartbeat frequency in vitro” value turned out to be 7.33 ± 0.8 beats/min in assay [1] (dsARG injected adults, vs dsCRZR unpaired t-test p = 0.0096) and 2 ± 0.9 beats/min in [1] (dsCRZR injected adults, vs dsARG unpaired t-test p = 0.0096). Further, in assay [1] (dsARG injected insects, unpaired t-test p = 0.0096), the “heartbeat rate in vitro (in words)” value is reported as “significantly increased the heartbeat rate”. Also, the ecdysis behavior result with Manduca sexta was “initiate ecdysis behavior”.
On to “pQVTFSRDWNAamide [Rhopr-ACP, R. prolixus AKH/CRZ-related peptide, p[…]amide, reference compound]”, for which the “bioluminescence response (receptor activation)” value in the assay with Rhopr-CRZR-β (Rhopr-CRZR-β, 10^−6 M, n = 3) is “without effect”; in the assay on Rhopr-CRZR-α (Rhopr-CRZR-α, 10^−6 M, n = 3) it was “without effect”.
In the case of “pQLTFSTDWamide [Rhopr-AKH, R. prolixus adipokinetic hormone, pQLTFSTDWamide, reference compound]”, the “bioluminescence response (receptor activation)” value in the assay on Rhopr-CRZR-β (Rhopr-CRZR-β, 10^−6 M, n = 3) is recorded as “without effect”; in the assay with Rhopr-CRZR-α (Rhopr-CRZR-α, 10^−6 M, n = 3), “without effect”.

The record behind these values is publication PMC4971055, “Identification and Characterization of the Corazonin Receptor and Possible Physiological Roles of the Corazonin-Signaling Pathway in Rhodnius prolixus” (Frontiers in Neuroscience, 2016).
